Test results from ChEMBL document CHEMBL5523740, “Discovery of Potent and Selective c-Met Degraders for Hepatocellular Carcinoma Treatment” (J Med Chem, 2024).

Key:
MHCC97H [1] = assay: Antiproliferative activity against human MHCC97H cells incubated for 24 hrs by CCK8 assay; type: functional, cell-based
[2] = biological target: Hepatocyte growth factor receptor (Homo sapiens, UniProt P08581); assay: Induction of c-Met degradation in human MHCC97H cells at 1 uM incubated for 24 hrs by Western blotting analysis; type: cell-based
Chain of Hepatocyte growth factor receptor (P08581 whole entry): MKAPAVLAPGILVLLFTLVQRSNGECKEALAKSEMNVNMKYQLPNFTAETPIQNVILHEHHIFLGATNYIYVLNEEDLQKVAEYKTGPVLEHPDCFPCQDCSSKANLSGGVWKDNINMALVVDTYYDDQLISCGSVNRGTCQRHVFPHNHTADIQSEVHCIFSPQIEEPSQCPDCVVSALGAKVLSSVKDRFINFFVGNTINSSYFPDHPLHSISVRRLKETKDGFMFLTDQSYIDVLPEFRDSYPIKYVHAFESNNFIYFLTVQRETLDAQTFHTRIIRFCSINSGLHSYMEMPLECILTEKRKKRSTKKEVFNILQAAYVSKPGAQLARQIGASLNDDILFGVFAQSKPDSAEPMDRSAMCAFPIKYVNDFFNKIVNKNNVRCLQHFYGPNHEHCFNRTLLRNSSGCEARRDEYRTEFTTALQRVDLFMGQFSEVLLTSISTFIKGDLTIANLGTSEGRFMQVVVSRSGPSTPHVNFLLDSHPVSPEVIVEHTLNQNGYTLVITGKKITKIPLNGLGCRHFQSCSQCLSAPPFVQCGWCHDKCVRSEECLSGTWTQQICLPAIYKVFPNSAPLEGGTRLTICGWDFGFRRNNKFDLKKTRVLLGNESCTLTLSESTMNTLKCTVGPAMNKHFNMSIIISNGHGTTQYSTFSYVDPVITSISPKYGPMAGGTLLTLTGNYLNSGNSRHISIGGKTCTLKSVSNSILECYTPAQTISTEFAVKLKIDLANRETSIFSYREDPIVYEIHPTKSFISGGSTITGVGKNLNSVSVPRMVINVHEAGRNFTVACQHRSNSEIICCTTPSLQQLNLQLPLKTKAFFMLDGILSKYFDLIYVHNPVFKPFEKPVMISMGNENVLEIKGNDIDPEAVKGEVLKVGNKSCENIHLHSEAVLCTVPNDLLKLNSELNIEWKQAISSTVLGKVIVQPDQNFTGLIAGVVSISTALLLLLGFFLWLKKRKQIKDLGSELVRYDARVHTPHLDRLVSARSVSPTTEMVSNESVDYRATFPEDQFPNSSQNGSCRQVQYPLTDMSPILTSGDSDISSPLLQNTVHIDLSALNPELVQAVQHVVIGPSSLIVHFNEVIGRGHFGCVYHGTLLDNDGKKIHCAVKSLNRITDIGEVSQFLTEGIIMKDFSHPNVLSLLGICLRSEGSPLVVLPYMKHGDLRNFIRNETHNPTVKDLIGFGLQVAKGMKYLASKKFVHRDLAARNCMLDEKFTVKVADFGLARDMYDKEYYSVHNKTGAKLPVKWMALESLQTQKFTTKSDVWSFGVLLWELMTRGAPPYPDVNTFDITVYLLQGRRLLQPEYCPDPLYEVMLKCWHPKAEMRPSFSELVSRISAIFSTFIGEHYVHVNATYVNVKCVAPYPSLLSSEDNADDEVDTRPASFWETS

MHCC97H [3] = assay: Induction of apoptosis in human MHCC97H cells assessed as necrotic cells at 3 nM incubated for 24 hrs by Annexin-V-FITC/PI staining based flow cytometry analysis (reference value: 1.77%); type: functional
[4] = Toxicity in BALB/c mouse xenografted with human MHCC97H cells assessed as spleen lesions at 20 mg/kg, po qd for 22 days and measured every 2 days by H and E staining based assay; type: organism-based; conditions: in vivo, 528 h, time 22 day
[5] = Toxicity in BALB/c mouse xenografted with human MHCC97H cells assessed as kidney lesions at 20 mg/kg, po qd for 22 days and measured every 2 days by H and E staining based assay; type: organism-based; conditions: in vivo, 528 h, time 22 day
MHCC97H [6] = assay: Induction of cell cycle arrest in human MHCC97H cells assessed as accumulation of cells at G2 phase at 3 nM incubated for 24 hrs by PI staining based flow cytometry analysis (reference value: 19.1%); type: functional
BaF3 [7] = assay: Antiproliferative activity against mouse BaF3 cells harboring TPR-MET Y1230H mutant fusion protein incubated for 72 hrs by CellTiter-Glo reagent based assay; type: functional, cell-based; conditions: BaF3, 72 h
[8] = Toxicity in BALB/c mouse xenografted with human MHCC97H cells assessed as liver lesions at 20 mg/kg, po qd for 22 days and measured every 2 days by H and E staining based assay; type: organism-based; conditions: in vivo, 528 h, time 22 day
[9] = Toxicity in BALB/c mouse xenografted with human MHCC97H cells assessed as heart lesions at 20 mg/kg, po qd for 22 days and measured every 2 days by H and E staining based assay; type: organism-based; conditions: in vivo, 528 h, time 22 day
BaF3 [10] = assay: Antiproliferative activity against mouse BaF3 cells harboring TPR-MET fusion protein incubated for 72 hrs by CellTiter-Glo reagent based assay; type: functional, cell-based; conditions: BaF3, 72 h
MHCC97H [11] = assay: Induction of apoptosis in human MHCC97H cells assessed as early apoptotic cells at 3 nM incubated for 24 hrs by Annexin-V-FITC/PI staining based flow cytometry analysis (reference value: 7.70%); type: functional
MHCC97H [12] = assay: Induction of apoptosis in human MHCC97H cells assessed as late apoptotic cells at 3 nM incubated for 24 hrs by Annexin-V-FITC/PI staining based flow cytometry analysis (reference value: 4.24%); type: functional
[13] = Toxicity in BALB/c mouse xenografted with human MHCC97H cells assessed as reduction in body weight at 20 mg/kg, po qd for 22 days and measured every 2 days; type: organism-based; conditions: in vivo, 528 h, time 22 day
MHCC97H [14] = assay: Induction of cell cycle arrest in human MHCC97H cells assessed as accumulation of cells at G1 phase at 3 nM incubated for 24 hrs by PI staining based flow cytometry analysis (reference value: 70.4%); type: functional
MHCC97H [15] = assay: Induction of apoptosis in human MHCC97H cells assessed as viable cells at 3 nM incubated for 24 hrs by Annexin-V-FITC/PI staining based flow cytometry analysis (reference value: 86.3%); type: functional; conditions: read-out: Activity
[16] = Toxicity in BALB/c mouse xenografted with human MHCC97H cells assessed as lung lesions at 20 mg/kg, po qd for 22 days and measured every 2 days by H and E staining based assay; type: organism-based; conditions: in vivo, 528 h, time 22 day
BaF3 [17] = assay: Antiproliferative activity against mouse BaF3 cells harboring TPR-MET D1228N mutant fusion protein incubated for 72 hrs by CellTiter-Glo reagent based assay; type: functional, cell-based; conditions: BaF3, 72 h
MHCC97H [18] = assay: Antitumor activity against human MHCC97H cells xenografted in BALB/c mouse assessed as tumor growth inhibition at 20 mg/kg, po qd for 22 days and measured every 2 days; type: functional; conditions: 528 h, time 22 day, read-out: TGI

| Activity [2] [%] | Structure (SMILES) | IC50 (MHCC97H [1]) [nM] | also measured |
| --- | --- | --- | --- |
| 11.1 | N#Cc1cccc(-c2ccc(=O)n(Cc3cccc(-c4ncc(OCC5CCN(CCNC(=O)CC67CC8CC(CC(C8)C6)C7)CC5)cn4)c3)n2)c1 | 22.9 |  |
| 40.5 | N#Cc1cccc(-c2ccc(=O)n(Cc3cccc(-c4ncc(OCC5CCN(CCCC(=O)NCC67CC8CC(CC(C8)C6)C7)CC5)cn4)c3)n2)c1 | 11.8 |  |
| < 10 | N#Cc1cccc(-c2ccc(=O)n(Cc3cccc(-c4ncc(OCC5CCN(CC(=O)NCCCCCCNC(=O)CC67CC8CC(CC(C8)C6)C7)CC5)cn4)c3)n2)c1 | 200 |  |
|  | CN1CCC(COc2cnc(-c3cccc(Cn4nc(-c5cccc(C#N)c5)ccc4=O)c3)nc2)CC1 [TEPOTINIB] | 3.66 | Activity (MHCC97H [3]): 2.57%; Activity [4]: Non-Toxic; Activity [5]: Non-Toxic; Activity (MHCC97H [6]): 16.6%; IC50 (BaF3 [7]): 1840 nM; Activity [8]: Non-Toxic; Activity [9]: Non-Toxic; IC50 (BaF3 [10]): 5.3 nM; Activity (MHCC97H [11]): 13.9%; Activity (MHCC97H [12]): 3.84%; Activity [13]: Non-Toxic; Activity (MHCC97H [14]): 73.7%; viability at 0.003 µM (MHCC97H [15]): 79.6%; Activity [16]: Non-Toxic; IC50 (BaF3 [17]): 2030 nM; inhibition in vivo at 20 mg/kg (MHCC97H [18]): 58.8% |
| 50.2 | N#Cc1cccc(-c2ccc(=O)n(Cc3cccc(-c4ncc(OCC5CCN(CC(=O)NCC6CC7C=CC6C7)CC5)cn4)c3)n2)c1 (stereo unspecified) | 73.6 |  |
| 15.8 | N#Cc1cccc(-c2ccc(=O)n(Cc3cccc(-c4ncc(OCC5CCN(C(=O)CC6c7ccccc7-c7ccccc76)CC5)cn4)c3)n2)c1 | 935 |  |
| 67.4 | N#Cc1cccc(-c2ccc(=O)n(Cc3cccc(-c4ncc(OCC5CCN(C(=O)CC67CC8CC(CC(C8)C6)C7)CC5)cn4)c3)n2)c1 | 67.2 |  |
| < 10 | N#Cc1cccc(-c2ccc(=O)n(Cc3cccc(-c4ncc(OCC5CCN(CC(=O)NCCCCCCCCNC(=O)CC67CC8CC(CC(C8)C6)C7)CC5)cn4)c3)n2)c1 | 156 |  |
| < 10 | N#Cc1cccc(-c2ccc(=O)n(Cc3cccc(-c4ncc(OCC5CCN(CC(=O)NCCCCCCCCCCNC(=O)CC67CC8CC(CC(C8)C6)C7)CC5)cn4)c3)n2)c1 | 155 |  |
| < 10 | N#Cc1cccc(-c2ccc(=O)n(Cc3cccc(-c4ncc(OCC5CCN(C(=O)CC(c6ccccc6)c6ccccc6)CC5)cn4)c3)n2)c1 | 128 |  |
| 35.8 | CC(C)[C@@H]1CC[C@@H](C)C[C@H]1OCC(=O)N1CCC(COc2cnc(-c3cccc(Cn4nc(-c5cccc(C#N)c5)ccc4=O)c3)nc2)CC1 | 258 |  |
| 22.4 | N#Cc1cccc(-c2ccc(=O)n(Cc3cccc(-c4ncc(OCC5CCN(CC(=O)NCCNC(=O)CC67CC8CC(CC(C8)C6)C7)CC5)cn4)c3)n2)c1 | 40.2 |  |
| < 10 | N#Cc1cccc(-c2ccc(=O)n(Cc3cccc(-c4ncc(OCC5CCN(CC(=O)NCCCCNC(=O)CC67CC8CC(CC(C8)C6)C7)CC5)cn4)c3)n2)c1 | 139 |  |
